Experimental data published in patent publication US6699969B1, “Assays for the detection of microtubule depolymerization inhibitors” (The Regents of the University of California, priority 1998, dated 2004).

Tested on: MSU1.1 human fibroblasts
Experiment: Centrosome targeting of GFP fusion after transient transfection
Format: cell-based
Settings: 2-4 hr after transfection
Protocol: To allow transient expression of a human p80 WD40-GFP fusion protein in HeLa cells, a DNA fragment containing amino acids 1-263 of human p80 katanin was generated by PCR amplification, placing a BamHl site and a Kozak consensus at the predicted translation start and an EcoRI site after the codon for a.a. 263. This BamH1-EcoR1 fragment was ligated into the GFP fusion vector pEGFP-N1 (Clontech).
Both MSU1.1 and Hela cells were grown on 18 mm glass coverslips in Optimem medium (Life Technologies) supplemented with 10% fetal bovine serum, penicillin and streptomycin. Plasmids were transfected using Superfect Reagent (Qiagen) for 2 hr after which coverslips were washed with PBS and placed in fresh culture medium at 37° C. with 5% CO2 for 1-24 hr.
For imaging of GFP-fluorescence and immunofluorescence with the human p80 katanin antibody or with the γ-tubulin antibody, monoclonal GTU88 (Sigma Chemical), cells on coverslips were fixed either in −20° C. methanol or in 0.5×PBS, 3.7% formaldehyde, 75% methanol at 22° C. for 10 min followed by rehydration in TBST. Antibody labelling was carried out in TBST containing 4% BSA. Images were captured with a Nikon Microphot SA microscope, 100× Plan Fluor 1.3 objective, Photometrics Quantix camera and IP Lab Spectrum software (Scanalytics).

With “p80 WD40-GFP: six WD40 repeats of human p80 katanin (a.a. 1-263) appended to N-terminus of green fluorescent protein” the “localization of green fluorescence” value was “co-localized with γ-tubulin staining”.
